pEC50: −log10 of the molar value.
The molecules below were run against T1, GLP-1R (Homo sapiens, UniProt P43220) (assay: EC20 GLP-1(9-36) PAM cAMP assay: dose response of compound in the presence of fixed concentration of GLP-1(9-36)). Conditions: GLP-1R CRE-bla CHO-K1 cells, compound dose response with fixed concentration of GLP-1(9-36), read-out: EC20 GLP-1(9-36) PAM EC50.
T1 construct: host or cells: GLP-1R CRE-bla CHO-K1 cells
Type: cell-based
In short: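 GLP-1R CRE-bla CHO-K1 cells treated 30 min at 37 °C with 12-point compound dose response plus fixed EC20 GLP-1(9-36), with IBMX, in HBSS/HEPES/0.1% BSA pH 7.4. Total cAMP measured by luminescent detection against standard curve; EC50 and Emax from non-linear regression.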

T1 sequence (P43220 24-463): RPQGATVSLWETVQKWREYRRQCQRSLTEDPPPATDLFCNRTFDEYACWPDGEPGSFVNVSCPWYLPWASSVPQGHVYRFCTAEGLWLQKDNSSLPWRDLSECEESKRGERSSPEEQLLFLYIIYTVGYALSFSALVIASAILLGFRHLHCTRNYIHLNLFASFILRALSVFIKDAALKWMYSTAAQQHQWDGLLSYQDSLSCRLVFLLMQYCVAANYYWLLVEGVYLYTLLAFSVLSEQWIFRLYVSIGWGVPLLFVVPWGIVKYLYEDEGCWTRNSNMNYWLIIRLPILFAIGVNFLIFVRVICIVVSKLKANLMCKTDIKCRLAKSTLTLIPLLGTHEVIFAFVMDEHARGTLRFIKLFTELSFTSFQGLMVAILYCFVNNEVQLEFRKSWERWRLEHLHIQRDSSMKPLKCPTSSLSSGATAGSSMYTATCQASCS
T1 sequence (P01275 100-127 partner limits assumed): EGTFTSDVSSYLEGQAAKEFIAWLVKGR

First: CCc1ccc(CCc2cnc(-c3ccc(C[C@H](NC(=O)c4ccc(C(C)(C)C)s4)C(=O)N[C@H](C)C(=O)O)cc3)nc2)cc1 [Compound 1274]
Second: CCc1ccc(/C=C\c2cnc(-c3ccc(C[C@H](NC(=O)c4ccc(C(C)(C)C)s4)C(=O)N[C@H](C)C(=O)O)cc3)nc2)cc1 [Compound 1277]
The pEC50 of the first is lower: 5.30 to 5.60 for the first, 5.60 to 6.10 for the second.

First: CC(C)CCOc1ccc(-c2ccc(-c3cnc(-c4ccc(C[C@H](NC(=O)c5ccc(C(C)(C)C)s5)C(=O)N[C@H](C)C(=O)O)cc4)nc3)cc2)cc1 [Compound 1294]
Second: C[C@@H](NC(=O)[C@H](Cc1ccc(-c2ncc(-c3ccc(-c4cccc(C(F)(F)F)c4)cc3)cn2)cc1)NC(=O)c1ccc(C(C)(C)C)s1)C(=O)O [Compound 1319]
The pEC50 of the first is higher: 5.60 to 6.10 for the first, 5.00 to 5.30 for the second. The first is the more potent here.

`CN(CCC(C)(O)c1cccc(OC(F)(F)F)c1)c1cnc(-c2ccc(CC(NC(=O)c3ccc(C(C)(C)C)s3)C(=O)N3CC(C(=O)O)C3)cc2)nc1` (centres unmarked) [Compound 1485] and `COc1ccc(C2CCN(c3cnc(-c4ccc(CC(NC(=O)c5ccc(C(C)(C)C)s5)C(=O)N5CC(C(=O)O)C5)cc4)nc3)CC2)cc1` (centres unmarked) [Compound 1489] cannot be ordered by pEC50: greater than 6.10 for the first, greater than 6.10 for the second.

First: CC(C)(C)c1ccc(C(=O)NC(Cc2ccc(-c3ncc(N4CCC(C#N)(c5ccccc5)CC4)cn3)cc2)C(=O)N2CC(C(=O)O)C2)s1 (centres unmarked) [Compound 1423]
Second: CC(C)(C)OC(=O)N1CCC(C2CCN(c3cnc(-c4ccc(C[C@H](NC(=O)c5ccc(C(C)(C)C)s5)C(=O)N5CC(C(=O)O)C5)cc4)nc3)CC2)CC1 [Compound 1415]
The pEC50 of the first is higher: 5.60 to 6.10 for the first, 5.00 to 5.30 for the second. The first is the more potent here.

First: CCCCCCCOc1ccc(-c2nnc(-c3ccc(C[C@H](NC(=O)c4ccc(C(C)(C)C)cc4)C(=O)N4CC(C(=O)O)C4)cc3)s2)cc1 [Compound 1551]
Second: CC(C)CCCOc1ccc(-c2cnc(-c3ccc(C[C@H](NC(=O)c4ccc(CC(C)C)cc4)C(=O)N4CC(C(=O)O)C4)cc3)nc2)cc1 [Compound 1236]
The pEC50 of the first is lower: 5.30 to 5.60 for the first, 5.60 to 6.10 for the second.

`CCC[C@H]1CC[C@H](C2CCN(c3cnc(-c4ccc(C[C@H](NC(=O)c5ccc(C6CC6)s5)C(=O)N5CC(C(=O)O)C5)cc4)nc3)CC2)CC1` [Compound 1515] and `CCC[C@H]1CC[C@H](C2CCN(c3cnc(-c4ccc(C[C@H](NC(=O)c5ccc(C6CC6)cc5)C(=O)N5CC(C(=O)O)C5)cc4)nc3)CC2)CC1` [Compound 1520] cannot be ordered by pEC50: greater than 6.10 for the first, greater than 6.10 for the second.

`CCC[C@H]1CC[C@H](C2CCN(c3cnc(-c4ccc(CC(NC(=O)c5ccc(C(C)(C)C)s5)C(=O)NS(=O)(=O)CC)cc4)nc3)CC2)CC1` (some centres unmarked) [Compound 1539] and `CC[C@H]1CC[C@H](c2ccc(-c3ccc(-c4ccc(C[C@H](NC(=O)c5ccc(C(C)(C)C)s5)C(=O)O)cc4)cn3)cc2)CC1` [Compound 1335] fall in the same range of pEC50: 5.30 to 5.60 for the first, 5.30 to 5.60 for the second.

`CC[C@H]1CC[C@H](c2ccc(-c3cnc(-c4ccc(C[C@H](NC(=O)c5ccc(CC(C)C)cc5)C(=O)O)cc4)nc3)cc2)CC1` [Compound 1383] showed a pEC50 of 5.60 to 6.10.

Same assay, conditions: dose response of compound in presence of fixed concentration of GLP-1(9-36), GLP-1R CRE-bla CHO-K1 cells, read-out: EC20 GLP-1(9-36) PAM EC50

First: CC(C)(C)c1ccc(C(=O)N[C@@H](Cc2ccc(-c3ncc(-c4nc(-c5ccc(C(C)(C)C)cc5)no4)cn3)cc2)C(=O)NCCC(=O)O)cc1 [Compound 745]
Second: C[C@@H](NC(=O)[C@H](Cc1ccc(-c2ncc(-c3ccc(C(C)(C)C)cc3)cn2)cc1)NC(=O)c1ccc(C(C)(C)C)cc1)C(=O)O [Compound 720]
The pEC50 of the first is higher: 5.60 to 6.10 for the first, 5.30 to 5.60 for the second.

First: CCCCCCCOc1ccc(-c2cnc(-c3ccc(C[C@H](NC(=O)c4ccc(C(C)(C)C)s4)C(=O)N[C@@H](Cc4ccccn4)C(=O)O)cc3)nc2)cc1 [Compound 628]
Second: CCCCCCCOc1ccc(-c2cnc(-c3ccc(C[C@H](NC(=O)c4ccc(C(C)(C)C)s4)C(=O)N[C@@H](CC)C(=O)O)cc3)nc2)cc1 [Compound 401]
The pEC50 of the first is lower: 5.60 to 6.10 for the first, greater than 6.10 for the second.

Compared with `CCc1ccc(-c2ccc(-c3cnc(-c4ccc(C[C@H](NC(=O)c5ccc(C(C)(C)C)s5)C(=O)N5CC(C(=O)O)C5)cc4)nc3)c(F)c2)cc1` [Compound 1189], `CC(C)COc1ccc(-c2cnc(-c3ccc(C[C@H](NC(=O)c4ccc(C(C)(C)C)s4)C(=O)N4CC(C(=O)O)C4)cc3)nc2)cc1` [Compound 789] is lower in pEC50: greater than 6.10 for the first, 5.30 to 5.60 for the second.

`CCCCCCCOc1ccc(-c2cnc(-c3ccc(C[C@H](NC(=O)c4ccc(C(C)(C)C)s4)C(=O)N4CC(CC(=O)O)C4)cc3)nc2)cc1` [Compound 607] and `CCCCCCCOc1ccc(-c2cnc(-c3ccc(C[C@H](NC(=O)c4ccc(C(C)(C)C)s4)C(=O)N4CCC(CCC(=O)O)C4)cc3)nc2)cc1` (some centres unmarked) [Compound 991] fall in the same range of pEC50: 5.60 to 6.10 for the first, 5.60 to 6.10 for the second.

`CCCCCCCOc1ccc(-c2cnc(-c3ccc(C[C@H](NC(=O)c4ccc(C(C)(C)C)cc4)C(=O)NCC(CC4CCOC4)C(=O)O)cc3)nc2)cc1` (some centres unmarked) [Compound 560] and `CCCCCCCOc1ccc(-c2cnc(-c3ccc(C[C@H](NC(=O)c4ccc(C(C)(C)C)cc4)C(=O)N[C@H](CN)C(=O)O)cc3)nc2)cc1` [Compound 465] fall in the same range of pEC50: 5.60 to 6.10 for the first, 5.60 to 6.10 for the second.

`C[C@@H](NC(=O)[C@H](Cc1ccc(-c2ncc(-c3ccc(C4CCC(F)(F)CC4)cc3)cn2)cc1)NC(=O)c1ccc(C(C)(C)C)s1)C(=O)O` [Compound 1142] and `CC[C@H]1CC[C@H](c2ccc(-c3cnc(-c4ccc(C[C@H](NC(=O)c5ccc(C(C)(C)C)s5)C(=O)N5CC(C(=O)O)C5)cc4)nc3)cc2)CC1` [Compound 1057, 1-((S)-2-(5-(tert-butyl)thiophene-2-carboxamido)-3-(4-(5-(4-((1r,4r)-4-ethylcyclohexyl)phenyl)pyrimidin-2-yl)phenyl)propanoyl)azetidine-3-carboxylic acid] cannot be ordered by pEC50: greater than 6.10 for the first, greater than 6.10 for the second.

`CCCCCCCOc1ccc(-c2cnc(-c3ccc(C[C@H](NC(=O)c4ccc(C(C)(C)C)s4)C(=O)N4C[C@H](C#N)C[C@H]4C(=O)O)cc3)nc2)cc1` [Compound 641] and `CCCCCCCOc1ccc(-c2cnc(-c3ccc(C[C@H](NC(=O)c4ccc(C(C)(C)C)s4)C(=O)N4C[C@@H](C#N)C[C@H]4C(=O)O)cc3)nc2)cc1` [Compound 640] cannot be ordered by pEC50: greater than 6.10 for the first, greater than 6.10 for the second.

Compared with `CCCCCCCOc1ccc(-c2ccc(-c3ccc(C[C@H](NC(=O)c4ccc(C(C)(C)C)cc4)C(=O)O)cc3)nn2)cc1` [Compound 273], `CCCCCCCOc1ccc(-c2cnc(-c3ccc(C[C@H](NC(=O)c4ccc(C(C)(C)C)cc4)C(=O)N[C@@H](CC(=O)NC)C(=O)O)cc3)nc2)cc1` [Compound 477, N^2—((S)-2-(4-(tert-butyl)benzamido)-3-(4-(5-(4-(heptyloxy)phenyl)pyrimidin-2-yl)phenyl)propanoyl)-N^4-methyl-L-asparagine] is higher in pEC50: 5.60 to 6.10 for the first, greater than 6.10 for the second. The second is the more potent here.

`CCCCCCCOc1ccc(-c2cnc(-c3ccc(C[C@H](NC(=O)c4ccc(C(C)(C)C)s4)C(=O)NC4CC(C(=O)O)C4)cc3)nc2)cc1` (some centres unmarked) [Compound 602] and `CCCCCCCOc1ccc(-c2cnc(-c3ccc(C[C@H](NC(=O)c4ccc(C(C)(C)C)s4)C(=O)N[C@H](CC)C(=O)O)cc3)nc2)cc1` [Compound 402] cannot be ordered by pEC50: greater than 6.10 for the first, greater than 6.10 for the second.

Compared with `CCCOc1ccc(-c2cnc(-c3ccc(C[C@H](NC(=O)c4ccc(C(C)(C)C)s4)C(=O)N4CC[C@H](C(=O)O)C4)cc3)nc2)cc1` [Compound 761], `CCCCCCCOc1ccc(-c2cnc(-c3ccc(C[C@H](NC(=O)c4ccc(C(C)(C)C)s4)C(=O)N4CCNCC4C(=O)O)cc3)nc2)cc1` (some centres unmarked) [Compound 891] is higher in pEC50: 5.30 to 5.60 for the first, 5.60 to 6.10 for the second. The second is the more potent here.

Compared with `C[C@@H](NC(=O)[C@H](Cc1ccc(-c2ncc(-c3cc4ccccc4cc3O)cn2)cc1)NC(=O)c1ccc(C(C)(C)C)s1)C(=O)O` [Compound 1008], `CCCOc1ccc(-c2cnc(-c3ccc(C[C@H](NC(=O)c4ccc(C(C)(C)C)s4)C(=O)N[C@H](C)C(=O)O)cc3)nc2)cc1C` [Compound 1005] is higher in pEC50: 5.00 to 5.30 for the first, 5.60 to 6.10 for the second. The second is the more potent here.

`CCOCCCCOc1ccc(-c2cnc(-c3ccc(C[C@H](NC(=O)c4ccc(C(C)(C)C)cc4)C(=O)NCCC(=O)O)cc3)nc2)cc1` [Compound 443] and `CC(C)CCCCOc1ccc(-c2cnc(-c3ccc(C[C@H](NC(=O)c4ccc(C(C)(C)C)cc4)C(=O)NCCC(=O)O)cc3)nc2)cc1` [Compound 472, (S)-3-(2-(4-(tert-butyl)benzamido)-3-(4-(5-(4-((5-methylhexyl)oxy)phenyl)-pyrimidin-2-yl)phenyl)propanamido)propanoic acid] fall in the same range of pEC50: 5.60 to 6.10 for the first, 5.60 to 6.10 for the second.

First: CC(C)(C)c1ccc(C(=O)N[C@@H](Cc2ccc(-c3ncc(-c4ccc(OCCC5CCCCC5)cc4)cn3)cc2)C(=O)NCCC(=O)O)cc1 [Compound 474, (S)-3-(2-(4-(tert-butyl)benzamido)-3-(4-(5-(4-(2-cyclohexylethoxy)phenyl)-pyrimidin-2-yl)phenyl)propanamido)propanoic acid]
Second: CCCCCCCCc1noc(-c2cnc(-c3ccc(C[C@H](NC(=O)c4ccc(C(C)(C)C)cc4)C(=O)NCCC(=O)O)cc3)nc2)n1 [Compound 755]
The pEC50 of the first is higher: 5.60 to 6.10 for the first, 5.30 to 5.60 for the second.

`CCCCCCCOc1ccc(-c2cnc(-c3ccc(C[C@H](NC(=O)c4ccc(C(C)(C)C)s4)C(=O)N[C@@H](c4n[nH]c(=S)o4)[C@@H](C)O)cc3)nc2)cc1` [Compound 895] and `CCCCCCCOc1ccc(-c2cnc(-c3ccc(C[C@H](NC(=O)c4ccc(C(C)(C)C)s4)C(=O)N[C@@H](Cn4cncn4)C(=O)O)cc3)nc2)cc1` [Compound 639] cannot be ordered by pEC50: greater than 6.10 for the first, greater than 6.10 for the second.

Compared with `CCCCCCCOc1ccc(-c2cnc(-c3ccc(C[C@H](NC(=O)c4ccc(C(C)(C)C)s4)C(=O)N[C@@H](CC(=O)O)C(=O)N(C)CCN(C)C)cc3)nc2)cc1` [Compound 531], `CCCCCCCOc1ccc(-c2cnc(-c3ccc(C[C@H](NC(=O)c4ccc(C(C)(C)C)s4)C(=O)NCCCN(CC)CC)cc3)nc2)cc1` [Compound 970] is lower in pEC50: 5.60 to 6.10 for the first, 5.30 to 5.60 for the second. The first is the more potent here.

First: COc1ccc(-c2cnc(-c3ccc(C[C@H](NC(=O)c4ccc(C(C)(C)C)s4)C(=O)N[C@H](C)C(=O)O)cc3)nc2)cc1C12CC3CC(CC(C3)C1)C2 [Compound 1054]
Second: CCCCCCCOc1ccc(-c2cnc(-c3ccc(C[C@H](NC(=O)c4ccc5c(c4)OCCO5)C(=O)N[C@H](C)C(=O)O)cc3)nc2)cc1 [Compound 980]
The pEC50 of the first is lower: 5.30 to 5.60 for the first, 5.60 to 6.10 for the second.

From patent US10034886B2, “GLP-1 receptor modulators” (Celgene International II SÀRL, priority 2014, dated 2018)
